Assay results from patent publication US11931365B2, “Use of PPAR-delta agonists in the treatment of disease” (Reneo Pharmaceuticals, Inc., priority 2022, dated 2024).

How the values were obtained:
[1] = system: patients with FAOD (CPT2, VLCAD, LCHAD, TFP); assay: Clinical trial for fatty acid oxidation disorder (FAOD); format: in vivo, human; details: for 12 MWT Mean Change / MFIS Total Mean Change / SF-36 Energy/Fatigue Mean Change / decrease in MFIS / increase in SF-36 energy/fatigue domain: Baseline to Week 12
Text: Purpose: The purposes of this study were: to assess the safety and tolerability of 12 weeks treatment with Compound I, or a pharmaceutically acceptable salt or solvate thereof (e.g., Compound II), in patients with FAOD; to investigate pharmacokinetics of Compound I, or a pharmaceutically acceptable salt or solvate thereof (e.g., Compound II), in patients with FAOD treated with Compound I, or a pharmaceutically acceptable salt or solvate thereof (e.g., Compound II); to investigate the pharmacodynamics effects of Compound I, or a pharmaceutically acceptable salt or solvate thereof (e.g., Compound II), in patients with FAOD treated with Compound I, or a pharmaceutically acceptable salt or solvate thereof (e.g., Compound II).
Intervention: Patients were administered 10-200 mg of Compound I, or a pharmaceutically acceptable salt or solvate thereof (e.g., Compound II), per day as single agent or in combination. In one cohort, patients received 50 mg of Compound I, or a pharmaceutically acceptable salt or solvate thereof (e.g., Compound II), once daily for a total of 12 weeks. In another cohort, patients received 100 mg of Compound I, or a pharmaceutically acceptable salt or solvate thereof (e.g., Compound II), once daily for a total of 12 weeks.
Detailed Description: Patients were given Compound I, or a pharmaceutically acceptable salt or solvate thereof, orally once a day.
Inclusion Criteria: Confirmed diagnosis of one of the following: carnitine palmitoyl transferase II deficiency (CPT2), very long-chain Acyl-CoA dehydrogenase deficiency (VLCAD), long-chain 3-hydroxyacyl-CoA dehydrogenase deficiency (LCHAD), or trifunctional protein deficiency (TFP).
Primary Outcome Measures: Safety Endpoints included: number and severity of adverse events. Absolute values, changes from baseline at Week 12 and incidence of clinically significant changes in: laboratory safety tests; electrocardiograms; supine vital signs; evaluation of events of special interest (rhabdomyolysis) and clinically significant changes in laboratory parameters of muscle injury including total CPK, adolase, and cardiac specific troponin (cTn).
Pharmacodynamic Endpoints included: Absolute values and changes from baseline at Week 12 in: whole body fatty acid oxidation (^13CO2 production) and blood acylcarnitines (UHPLC-MS/MS method).
Secondary Outcome Measures: Assessment of the change from baseline following 12 weeks of treatment with Compound I, or a pharmaceutically acceptable salt or solvate thereof (e.g., Compound II), in: submaximal treadmill exercise tolerance; distance walked during a 12 minute walk test; 36-Item Short Form Survey (SF-36) total score and subscales (questions 3-12). Change from baseline in Fatigue Impact Scale score (every visit). Change from baseline in Brief Pain Inventory (short form) (every visit). Blood inflammatory cytokines (Multiplex Immunoassay for sE-Selectin; GM-CSF; ICAM-1/CD54; IFN alpha; IFN gamma; IL-1 alpha; IL-1 beta; IL-4; IL-6; IL-8; IL-10; IL-12p70; IL-13; IL-17A/CTLA-8; IP-10/CXCL10; MCP-1/CCL2; MIP-1alpha/CCL3; MIP-1 beta/CCL4; sP-Selectin; TNF alpha).

hPPARα = biological target: T1, hPPARα (Homo sapiens, UniProt Q07869); assay: PPAR receptor transactivation assay (UAS-bla Gal4, HEK293); format: cell-based; details: PPARα
T1 construct: expressed in transfected cells; host or cells: Jump-In GripTite HEK293
T1 sequence (Q07869 whole entry, the tested form may be a part): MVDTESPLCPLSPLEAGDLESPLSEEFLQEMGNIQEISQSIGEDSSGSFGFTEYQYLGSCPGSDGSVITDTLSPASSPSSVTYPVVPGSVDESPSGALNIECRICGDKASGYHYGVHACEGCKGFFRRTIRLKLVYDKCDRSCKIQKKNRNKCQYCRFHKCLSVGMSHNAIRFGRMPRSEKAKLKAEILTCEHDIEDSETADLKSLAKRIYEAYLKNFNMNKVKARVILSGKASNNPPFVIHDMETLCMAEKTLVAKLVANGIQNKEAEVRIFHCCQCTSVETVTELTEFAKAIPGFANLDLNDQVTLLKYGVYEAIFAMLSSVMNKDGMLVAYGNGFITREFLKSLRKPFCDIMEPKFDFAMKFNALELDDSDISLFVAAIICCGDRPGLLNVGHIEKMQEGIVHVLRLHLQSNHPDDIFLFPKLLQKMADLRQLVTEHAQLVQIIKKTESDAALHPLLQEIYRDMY
Description: (§1) Compound I was tested on all three human PPAR subtypes (hPPAR): hPPARα, hPPARγ, and hPPARδ in vitro assays testing for such activity.
(§2) Compound I was tested on all three human PPAR subtypes (hPPAR): hPPARα, hPPARγ, and hPPARδ. All assays were repeated at least three times for each subtype.
(§3) The genes of interest were synthesized and cloned into an appropriate Jump-In™ retargeting vector following the User Guide of the Jump-in™ T-REx™ HEK293 Retargeting Kit (ThermoFisher Catalog No A15008). For example, the vector will be used to transfect and retarget the Jump-In™ HEK293 GripTite™ parental cell line. Stable pools will be antibiotic-selected for about 21 days and tested for target gene expression by functional assay.
(§4) Jump-In™ GripTite™ HEK293 parental cells were plated at 60-80% confluency in a T-75 flask in growth medium without antibiotics and transfected with a 1:1 ratio of expression construct and R4 integrase expression construct (20 μg DNA total) using Lipofectamine® LTX (50 μL) and PLUS™ Reagent (20 μL). Following a 48 hours incubation, cells were selected with 600 μg/mL Geneticin® and 10 μg/mL Blasticidin for ˜21 days in growth medium.
(§5) Jump-In™ GripTite™ HEK293 rPPAR Alpha, Delta or Gamma UAS-bla-Gal4 cell pools were plated in a 384-well plate format (20,000 cells per well) in OptiMeM without FBS in replicates (n=4). Cells were allowed to adhere for 8 hours before addition of Compound I (1 mM top concentration, 3-fold dilutions, 10-point titration). After 16 hours, the cells were loaded with LiveBLAzer®, a fluorescent BLA substrate that gives a blue/green readout of expressing/non-expressing cells, respectively. The blue/green readout was measured on a fluorescent plate reader (Tecan Safire II).

hPPARγ = biological target: T2, hPPARγ (Homo sapiens, UniProt P37231); assay: as above; format: cell-based
T2 construct: expressed in transfected cells; host or cells: Jump-In GripTite HEK293
T2 sequence (P37231 whole entry): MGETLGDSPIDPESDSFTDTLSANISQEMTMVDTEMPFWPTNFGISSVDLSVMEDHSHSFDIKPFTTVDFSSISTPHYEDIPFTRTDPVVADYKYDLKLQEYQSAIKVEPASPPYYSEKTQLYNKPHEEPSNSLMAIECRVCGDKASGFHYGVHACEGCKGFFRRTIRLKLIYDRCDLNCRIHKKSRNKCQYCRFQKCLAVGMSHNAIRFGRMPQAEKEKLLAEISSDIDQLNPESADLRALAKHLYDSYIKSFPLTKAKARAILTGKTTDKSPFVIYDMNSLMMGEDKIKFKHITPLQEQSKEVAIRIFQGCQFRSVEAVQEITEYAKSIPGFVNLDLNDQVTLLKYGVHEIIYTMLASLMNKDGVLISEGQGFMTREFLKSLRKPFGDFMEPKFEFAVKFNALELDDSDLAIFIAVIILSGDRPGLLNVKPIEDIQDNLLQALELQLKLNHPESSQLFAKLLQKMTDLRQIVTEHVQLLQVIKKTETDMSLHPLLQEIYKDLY
Description: as §1, §2, §3, §4, §5

[2] = system: human retinoid X receptor (hRXR); assay: Nuclear receptor activity
[3] = 24 patients, 50 or 100 mg/day, 12 weeks

Cc1cc(OC/C=C(/c2ccc(F)cc2)c2ccc(C#CCN3CCOCC3)cc2)ccc1OCC(=O)O [Compound I, (E)-2-(4-((3-(4-fluorophenyl)-3-(4-(3-morpholinoprop-1-yn-1-yl)phenyl)allyl)oxy)-2-methylphenoxy)acetic acid]
distance walked during a 12-minute walk test ([1]; 50 mg once daily, 12 weeks): able to increase distance walked | exhaled 13CO2 ([1]; 50 mg once daily, 12 weeks): trend towards increases | heart rate during the last ten minutes of exercise ([1]; 50 mg once daily, 12 weeks): decreases | TEAEs reported as study drug related [1, 3]: 30% | patients discontinuing treatment [1, 3]: 12.5% | patients reporting rhabdomyolysis (most common TEAE) [1, 3]: 16.7% | patients reporting treatment-emergent adverse events (TEAEs) [1, 3]: 75% | severity of the majority of study drug related TEAEs [1, 3]: mild or moderate | 12 MWT Mean Change ([1]; CPT2 subgroup): 51.9 meters | MFIS Total Mean Change ([1]; CPT2 subgroup): 1.0 | SF-36 Energy/Fatigue Mean Change ([1]; CPT2 subgroup): 0.8 | tolerability ([1]; FAOD patients): well tolerated | 12 MWT Mean Change ([1]; LCHAD subgroup): 73.7 meters | MFIS Total Mean Change ([1]; LCHAD subgroup): −9.8 | SF-36 Energy/Fatigue Mean Change ([1]; LCHAD subgroup): 19.5 | decrease in MFIS ([1]; LCHAD subgroup): 9.8 point | increase in SF-36 energy/fatigue domain ([1]; LCHAD subgroup): 19.5 point | decrease in MFIS ([1]; TFP subgroup (n = 2)): 8.0 point | increase in SF-36 energy/fatigue domain ([1]; TFP subgroup (n = 2)): 25.0 point | 12 MWT Mean Change ([1]; VLCAD subgroup): −36.7 meters | MFIS Total Mean Change ([1]; VLCAD subgroup): 15.6 | SF-36 Energy/Fatigue Mean Change ([1]; VLCAD subgroup): −17.8 | agonist type (hPPARα): partial agonist | agonist type (hPPARγ; PPARγ): partial agonist | EC50 (hPPARγ; human PPARγ): > 10 µM | hRXR activity [2]: did not show any
